pIC50, pKi: −log10 of the molar value. Like-named read-outs stand apart in the source and are kept apart here.
Key:
[1] = molecular target: T1, chicken FAS (overall reaction) (Gallus gallus, UniProt P12276); experiment: Enzyme inhibition kinetics (double reciprocal plots, variable substrate); format: biochemical; settings: for pKi: secondary plot of slopes, read-out: Inhibition constant Kis; for Inhibition constant Kii: secondary plot of intercepts
T1 construct: tissue Huadu Broiler Corporation, Beijing; host or cells: chicken liver
Text: Possible interference by the inhibitor at each substrate binding site was examined by holding the concentration of the inhibitor at several fixed levels respectively, and increasing one substrate concentration while keeping the concentrations of the other substrates constant. Double reciprocal plots for every concentration of the inhibitor were yielded to estimate the competitive relationship between the variable substrate and inhibitor concentrations. This study is based on fast-binding inhibition.
Inhibition kinetics study was carried out to elucidate the mechanism of the reversible inhibition of FAS by garcinone E. Possible interference by garcinone E at each substrate-binding site was examined by holding the concentration of garcinone E at a constant value, and measuring the effect of increasing one substrate concentration (the concentrations of the other two substrates were fixed) on the initial reaction rate. Double-reciprocal plots of the results (Fig. 3A–C) yielded three families of straight lines, which had different intersections, for three substrates of FAS. […] However, the lines for NADPH (Fig. 3C) intersected on the X axis, from which it was concluded that garcinone E was a typically noncompetitive inhibitor of FAS against NADPH.
Fig. 3 Lineweaver–Burke plots for inhibition of FAS activity by garcinone E. Double reciprocal plots for inhibition of FAS by garcinone E. The activity of the overall reaction of FAS was measured. (A) The concentrations of Mal-CoA and NADPH were fixed at 10 μM and 35 μM, respectively. Ac-CoA was the variable substrate. […] (B) The concentrations of Ac-CoA and NADPH were fixed at 3 μM and 35 μM, respectively. Mal-CoA was the variable substrate. […] (C) The concentrations of Ac-CoA and Mal-CoA were fixed at 3 μM and 10 μM, respectively. NADPH was the variable substrate. […] Each datum was the mean from 2–5 experiments.

[2] = molecular target: T1, chicken FAS (overall reaction); experiment: Fast-binding inhibition of FAS overall reaction (NADPH absorption at 340 nm); format: biochemical; settings: fast-binding reversible inhibition, 37 °C; read-out: IC50 (half-inhibitory concentration), overall reaction of FAS
Procedure: (§1) The preparation of FAS from chicken liver (Huadu Broiler Corporation, Beijing) was performed as described previously.[24] The amino acid sequence of chicken FAS has 63% identity with the sequence of human enzyme.[25] All animal operations followed the Guidelines for the Care and Use of Laboratory Animals established by the National Research Council (US) Institute for Laboratory Animal Research. The purified FAS was homogenized by polyacrylamide gel electrophoresis in the presence and absence of sodium dodecyl sulfate, respectively.
(§2) The FAS activity was measured at 37 °C by spectrophotometer at 340 nm of NADPH absorption. The overall reaction system contained 100 mM KH2PO4–K2HPO4 buffer, 1 mM EDTA, 1 mM dithiothreitol, 3 μM Ac-CoA, 10 μM Mal-CoA, 35 μM NADPH, and 10 μg FAS in a total volume of 2 ml as previously described.[26,27] The assay for β-ketoacyl reduction activity of FAS was catalyzed by KR containing 100 mM KH2PO4–K2HPO4 buffer, 200 mM ethyl acetoacetate, 35 μM NADPH, and 20 μg FAS in a total volume of 2 ml (pH 7.0).
Reversible inhibition was determined by adding the inhibitor to the reaction system before the reaction was initiated. The activities of FAS in the presence and absence of garcinone E (dissolved in DMSO) were designated as Ai and A0 respectively. The value of Ai/A0 × 100% was defined as the relative activity (R.A.) of FAS. […]

[3] = molecular target: T2, KR (β-ketoacyl reductase) of chicken FAS (Gallus gallus, UniProt P12276); experiment: Time-dependent inactivation of KR reaction of FAS; format: biochemical
T2 construct: tissue Huadu Broiler Corporation, Beijing; host or cells: chicken liver
Procedure: (§3) The activity of KR was determined at 37 °C by measuring the change of absorption at 340 nm. The KR reaction mixture (2 ml) contained 40 mM ethyl acetoacetate, 35 μM NADPH, 1 mM EDTA, 1 mM DTT and 10 μg of FAS in 100 mM phosphate buffer, pH 7.0.[28]
(§4) Assay of time-dependent inhibition activity was carried out as previous described.[13] The FAS solution was mixed with garcinone E and incubated at 25 °C, and then aliquots were taken to measure the remaining activity at the indicated time intervals to obtain the time course. […] The rate constant of FAS inactivation can be calculated from a semi-log plot of the time course, which is based upon the formula ln At/A0 = −kobst. The At/A0 expresses the remaining activity at t time, and kobs is the observed rate constant. Based on earlier studies, the inhibition of FAS activity is due to both fast-binding and time-dependent inhibitions, although sometimes the fast-binding reversible inhibition is not potent enough to affect the enzyme.

[4] = molecular target: T3, chicken FAS (Gallus gallus, UniProt P12276); experiment: Substrate protection for time-dependent inactivation of FAS; format: biochemical; settings: 10.0 μM garcinone E
T3 construct: tissue Huadu Broiler Corporation, Beijing; host or cells: chicken liver
Procedure: as §4
Furthermore, substrate protection for time-dependent inhibition was examined in the measurement of FAS inactivation by garcinone E with 10 μM Ac-CoA, 10 μM Mal-CoA, or 10 μM NADPH, respectively. Inactivation in the same condition but without any substrate was the control. […] Therefore, the substrates of Mal-CoA and NADPH had no obvious protection effect. However, the inactivation was slowed by Ac-CoA.

[5] = molecular target: T2, KR (β-ketoacyl reductase) of chicken FAS; experiment: Fast-binding inhibition of β-ketoacyl reduction (KR) activity of FAS; format: biochemical; settings: fast-binding reversible inhibition, 37 °C
Procedure: as §1, §2, §3

[6] = molecular target: T1, chicken FAS (overall reaction); experiment: Time-dependent (slow-binding irreversible) inactivation of FAS overall reaction; format: biochemical
Procedure: as §4

[7] = tested on: FAS; settings: cited from earlier work

T2 sequence (P12276 whole entry): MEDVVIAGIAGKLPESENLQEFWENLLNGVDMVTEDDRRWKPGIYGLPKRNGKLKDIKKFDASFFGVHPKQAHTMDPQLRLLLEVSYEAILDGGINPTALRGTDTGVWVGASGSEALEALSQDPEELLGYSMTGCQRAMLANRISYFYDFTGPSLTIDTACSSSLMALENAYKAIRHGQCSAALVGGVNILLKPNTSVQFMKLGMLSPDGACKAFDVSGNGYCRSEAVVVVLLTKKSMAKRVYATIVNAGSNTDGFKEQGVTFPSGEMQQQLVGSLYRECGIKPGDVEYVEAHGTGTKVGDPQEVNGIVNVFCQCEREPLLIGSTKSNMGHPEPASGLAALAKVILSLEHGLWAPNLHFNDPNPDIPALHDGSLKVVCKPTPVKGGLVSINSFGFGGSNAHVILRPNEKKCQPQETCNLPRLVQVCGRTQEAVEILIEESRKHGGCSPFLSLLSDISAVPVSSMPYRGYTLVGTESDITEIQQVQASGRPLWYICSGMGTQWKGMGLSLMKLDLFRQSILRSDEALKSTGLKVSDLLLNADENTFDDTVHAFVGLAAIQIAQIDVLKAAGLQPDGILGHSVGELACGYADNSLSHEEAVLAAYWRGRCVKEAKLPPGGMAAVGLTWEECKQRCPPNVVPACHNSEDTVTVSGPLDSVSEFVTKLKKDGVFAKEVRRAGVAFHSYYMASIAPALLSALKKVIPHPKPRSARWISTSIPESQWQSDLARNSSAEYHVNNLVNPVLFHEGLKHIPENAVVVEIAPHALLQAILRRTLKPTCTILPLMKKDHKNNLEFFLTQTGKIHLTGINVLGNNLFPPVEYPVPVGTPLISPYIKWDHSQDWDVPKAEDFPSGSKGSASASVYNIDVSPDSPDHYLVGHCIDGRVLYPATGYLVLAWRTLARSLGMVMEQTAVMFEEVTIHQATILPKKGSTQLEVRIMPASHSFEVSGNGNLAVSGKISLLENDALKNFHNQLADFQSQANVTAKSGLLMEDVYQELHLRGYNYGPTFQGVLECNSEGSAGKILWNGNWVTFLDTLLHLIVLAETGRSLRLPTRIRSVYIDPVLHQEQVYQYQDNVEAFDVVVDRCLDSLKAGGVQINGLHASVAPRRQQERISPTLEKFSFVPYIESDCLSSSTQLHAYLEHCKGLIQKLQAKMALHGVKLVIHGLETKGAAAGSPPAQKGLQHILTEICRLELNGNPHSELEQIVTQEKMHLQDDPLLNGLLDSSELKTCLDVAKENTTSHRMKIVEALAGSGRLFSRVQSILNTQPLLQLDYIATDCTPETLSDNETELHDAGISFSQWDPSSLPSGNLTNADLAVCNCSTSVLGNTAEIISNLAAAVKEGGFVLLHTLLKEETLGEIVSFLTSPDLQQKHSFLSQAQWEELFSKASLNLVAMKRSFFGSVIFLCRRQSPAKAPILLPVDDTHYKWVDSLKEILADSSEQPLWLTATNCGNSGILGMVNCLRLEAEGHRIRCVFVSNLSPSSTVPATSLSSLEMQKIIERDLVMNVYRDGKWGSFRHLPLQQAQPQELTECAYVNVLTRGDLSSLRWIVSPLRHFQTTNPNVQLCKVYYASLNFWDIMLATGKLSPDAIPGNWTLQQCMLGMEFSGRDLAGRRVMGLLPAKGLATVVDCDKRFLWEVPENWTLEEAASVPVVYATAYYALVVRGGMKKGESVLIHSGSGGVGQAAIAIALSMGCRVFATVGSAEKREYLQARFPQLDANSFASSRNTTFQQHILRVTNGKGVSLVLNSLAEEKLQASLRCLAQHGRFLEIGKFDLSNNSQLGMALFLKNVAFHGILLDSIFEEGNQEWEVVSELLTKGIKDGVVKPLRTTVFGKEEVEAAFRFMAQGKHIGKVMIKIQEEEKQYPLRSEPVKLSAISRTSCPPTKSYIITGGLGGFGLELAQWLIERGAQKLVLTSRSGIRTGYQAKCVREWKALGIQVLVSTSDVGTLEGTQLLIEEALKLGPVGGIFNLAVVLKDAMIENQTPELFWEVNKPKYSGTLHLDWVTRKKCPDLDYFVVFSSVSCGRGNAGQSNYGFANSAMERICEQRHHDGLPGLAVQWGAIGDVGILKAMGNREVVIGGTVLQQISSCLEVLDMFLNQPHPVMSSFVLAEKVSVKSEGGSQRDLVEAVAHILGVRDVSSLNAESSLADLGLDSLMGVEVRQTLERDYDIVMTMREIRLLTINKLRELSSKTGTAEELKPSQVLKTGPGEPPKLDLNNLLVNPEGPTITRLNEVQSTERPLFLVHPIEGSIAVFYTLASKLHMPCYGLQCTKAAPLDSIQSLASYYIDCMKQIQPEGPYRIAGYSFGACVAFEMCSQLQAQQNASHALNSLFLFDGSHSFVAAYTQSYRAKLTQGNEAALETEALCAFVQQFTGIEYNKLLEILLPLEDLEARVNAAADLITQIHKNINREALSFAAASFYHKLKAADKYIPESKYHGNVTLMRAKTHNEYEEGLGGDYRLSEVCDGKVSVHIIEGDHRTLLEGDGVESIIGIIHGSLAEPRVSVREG
T3 sequence (P12276 whole entry): as above
T1 sequence (P12276 whole entry): as above

In the case of `CC(C)=CCc1c(O)cc2oc3c(CC=C(C)C)c(O)c(O)c(CC=C(C)C)c3c(=O)c2c1O` [garcinone E, 2,3,6,8-tetrahydroxy-1,4,7-tris(3-methylbut-2-enyl)-9H-xanthen-9-one], the Inhibitory manner ([1]; variable substrate Ac-CoA, Mal-CoA 10 μM, NADPH 35 μM) was “Competitive”, the pKi ([1]; variable substrate Ac-CoA) was 5.75 and the Inhibitory manner ([1]; variable substrate Mal-CoA, Ac-CoA 3 μM, NADPH 35 μM) was “Mixed competitive and noncompetitive”. The “Inhibition constant Kii” value ([1]; variable substrate Mal-CoA, binding with enzyme-substrate complex) was 5.99 µM, the pKi ([1]; variable substrate Mal-CoA) was 5.41 and the Inhibitory manner ([1]; variable substrate NADPH, Ac-CoA 3 μM, Mal-CoA 10 μM) was “Noncompetitive”. For the same compound, the “Inhibition constant Kii” value ([1]; variable substrate NADPH) was 2.67 µM, the pKi ([1]; variable substrate NADPH) was 5.71 and the pIC50 [2] was 5.48. For the same compound, the “irreversible inhibition on KR, in words” value [3] was “very weak”, the “kobs of FAS inactivation, KR” value ([3]; 20.0 μM garcinone E, incubated at 25 °C) was 0.0004 min⁻¹ and the “kobs for inactivation of FAS” value ([4]; no protection) was 17.4 10^−3 min^−1. For the same compound, the “reduction of apparent rate constant by pre-incubation with substrate” value ([4]; pre-incubation with Mal-CoA and NADPH) was “less than 10%”, the “kobs for inactivation of FAS” value ([4]; protection by 10 μM Ac-CoA) was 5.3 10^−3 min^−1 and the “kobs for inactivation of FAS” value ([4]; protection by 10 μM Mal-CoA) was 16.6 10^−3 min^−1. The “kobs for inactivation of FAS” value ([4]; protection by 10 μM NADPH) was 15.9 10^−3 min^−1, the pIC50 [5] was 4.84 and the “time-dependent (slow-binding irreversible) inhibition of FAS overall reaction, in words” value [6] was “slow-binding irreversible inhibition”. The “fold difference in inactivation rate between overall reaction and KR” value ([6]; 20.0 μM garcinone E) was “more than 20 fold”.
In the case of `O=C(O[C@@H]1Cc2c(O)cc(O)cc2O[C@@H]1c1cc(O)c(O)c(O)c1)c1cc(O)c(O)c(O)c1` [EGCG, epigallocatechin gallate], the pIC50 [7] is given as 4.28.
In the case of `COc1c(O)cc2oc3cc(O)c(CC=C(C)C)c(O)c3c(=O)c2c1CC=C(C)C` [α-mangostin], the “time-dependent (slow-binding irreversible) inhibition of FAS overall reaction, in words” value [6] was “none of them showed slow-binding inactivation”.
With `COc1cc2oc3cc(O)c(OC)c(CC=C(C)C)c3c(=O)c2c(O)c1CC=C(C)C` [β-mangostin] the “time-dependent (slow-binding irreversible) inhibition of FAS overall reaction, in words” value [6] was “none of them showed slow-binding inactivation”.
In the case of `CC(C)=CCc1c(O)cc2oc3cc(O)c(O)c(CC=C(C)C)c3c(=O)c2c1O` [γ-mangostin], the “time-dependent (slow-binding irreversible) inhibition of FAS overall reaction, in words” value [6] was “none of them showed slow-binding inactivation”.
In the case of `C/C=C/C/C=C/CCC(=O)[C@H]1O[C@H]1C(N)=O` [cerulenin], the pIC50 [7] is listed as 4.05.

Source: publication PMC9078525, “Inhibitory effects of garcinone E on fatty acid synthase” (RSC Advances, 2018)
